US20130137573A1, “HERBICIDAL COMPOSITIONS COMPRISING, AND METHODS OF USE OF, HERBICIDALLY ACTIVE PYRANDIONES” (priority 2009, published 2013)

Tests used:
Assay type in all cases: in vivo
[1] = system: Echinochloa crus-galli (ECHCG); assay: Biological Example 1 (Test 125): visual herbicidal damage to flooded ECHCG; conditions: 14 DAA
Experimental: Rice seeds, variety IR-64 (an indica type of rice), were sown in seed trays. After 7 days the resulting plants were transplanted as 3 groups of 2 plants, into pots containing a standard sandy loam soil saturated with water replicating swampy conditions. These were grown on for a further 9 days in a glasshouse bay (30/20° C. day/night; 18/6 hours light/dark; 75% humidity). Leptochloa chinensis (LEFCH) and Echinochloa crus-galli (ECHCG) were sown as 2 separate groups of approx 10-20 seeds into pots 13 days prior to application of the test substances, in the same glasshouse conditions as the rice. Therefore, each pot of weeds contained a group of LEFCH and a separate group of ECHCG. All pots of rice and all pots of weeds were flooded to 2-3 cm water depth the day prior to application of the test substances. Growth stages at time of application were as follows: Rice: from 2 leaves on the main stem up to tillering; ECHCG: from 2 leaves on the main stem up to tillering; LEFCH: 2-3 leaves.
Test solutions were prepared by mixing the appropriate aliquots of the test substances in deionised water to give the desired treatment concentration. Most of the test substances were used as formulated products. Specifically, compound A-13 was applied as the EC050 formulation disclosed in Formulation Example 1 herein (EC=emulsifiable concentrate). Reference compound A-4 was applied as the EC050 formulation disclosed in Reference Formulation Example 2 herein. Pyroxasulfone (a comparator co-herbicide) was applied as the SC050 formulation disclosed in Reference Formulation Example 6 herein (SC=Suspension concentrate). Imazosulfuron (a comparator co-herbicide) was applied as a GR0.25 formulation (GR=granule).
The test substances which were pure active ingredient (e.g. propyrisulfuron & fenoxasulfone & compound A-16) (labelled as ‘Technical’ in the following results table), were prepared by dissolving in 10.56% Emulsogen EL™ (castor oil ethoxylate, CAS Registry number 61791-12-6), 42.22% N-methylpyrrolidone and 42.22% dipropylene glycol mono-ethyl ether to give a stock solution containing 5% of the test substance and 95% of (Emulsogen EL™, N-methylpyrrolidone and dipropylene glycol mono-ethyl ether).
Application of the test substances was made by pipetting the required amount of the test solution or the test formulation gently into the flood water of the appropriate pot.
The test plants were then grown on in the same glasshouse conditions, and watered twice daily keeping the flood water at a depth of 2-3 cm.
A visual assessment of the % herbicidal damage was made 7 & 14 days after application […], and the results are presented herein as % visual herbicidal damage where 0=no damage to plants and 100=total kill.

[2] = system: Echinochloa crus-galli (ECHCG); assay: Biological Example 4 (Test 110): transplanted (TPR) method, ECHCG damage; conditions: EC050 into flood water, ECHCG 4 leaves, 14 days after application
Experimental: (§1) Rice seeds, variety Koshihikari, were sown in seed trays, after 7 days they were transplanted as 3 groups of 2 plants, into pots containing a standard sandy loam soil saturated with water replicating swampy conditions. These were grown on for 9 days in a glasshouse bay 30/20° C. day/night; 18/6 hours light/dark; 75% humidity). Approx 10-20 seeds of Echinochloa crus-galli were sown into pots 13 days prior to application, in the same conditions as the rice. All pots were flooded to 2-3 cm water depth the day prior to application. Growth stages at time of application were: Rice: 2-3 leaves, ECHCG: 4 leaves. The test solutions were prepared by mixing the appropriate aliquots of the test substance (here, compound A-13 as EC050 Formulation Example 1) in de-ionised water to give the desired treatment concentration.
(§2) Application was made by pipetting the required amount of the test solution gently into the flood water of the appropriate pot.
(§3) The test plants were grown on in the same glasshouse conditions, and watered twice daily keeping the flood water at a depth of 2-3 cm.
No. of repetitions: 1 test only.
(§4) A visual assessment of the % herbicidal damage was made 14 days after application (0=no damage to plants, 100=total kill).

Koshihikari rice = assay: Biological Example 3 (Test 120): damage to flooded transplanted rice; conditions: for Koshihikari rice % herbicidal damage, Mean of 2 repetitions / Koshihikari rice % herbicidal damage, Repetition A / Koshihikari rice % herbicidal damage, Repetition B / rice phytotoxicity (span of the 2 repetitions): EC050, 14DAA; for rice phytotoxicity (span of the 2 repetitions): Koshihikari
Experimental: as §1, with “clay” for “sandy loam”, “(30/20°” for “30/20°”, “leaves;” for “leaves,”, “2-3” for “4”, “leaves.” for “leaves. The test solutions were prepared by mixing the appropriate aliquots of the test substance (here, compound A-13 as EC050 Formulation Example 1) in de-ionised water to give the desired treatment concentration.”
(§5) The test solutions were prepared by mixing the appropriate aliquots of the test substance (here, compound A-13 as the EC050 Formulation Example 1 disclosed herein) in de-ionised water to give the desired treatment concentration.
as §2, §3, §4

[3] = system: Echinochloa crus-galli (ECHCG); assay: Biological Example 3 (Test 120): visual herbicidal damage to flooded ECHCG; conditions: EC050, 14DAA
Experimental: as §1, with “clay” for “sandy loam”, “(30/20°” for “30/20°”, “leaves;” for “leaves,”, “2-3” for “4”, “leaves.” for “leaves. The test solutions were prepared by mixing the appropriate aliquots of the test substance (here, compound A-13 as EC050 Formulation Example 1) in de-ionised water to give the desired treatment concentration.”
as §5, §2, §3, §4

IR-64 rice [4] = assay: Biological Example 1 (Test 125): damage (phytotoxicity) to flooded transplanted rice; conditions: alone or in tested mixtures; A-4 mixtures especially at higher application rates of compound A-4
Text: Rice seeds, variety IR-64 (an indica type of rice), were sown in seed trays. After 7 days the resulting plants were transplanted as 3 groups of 2 plants, into pots containing a standard sandy loam soil saturated with water replicating swampy conditions. […] Leptochloa chinensis (LEFCH) and Echinochloa crus-galli (ECHCG) were sown as 2 separate groups of approx 10-20 seeds into pots 13 days prior to application of the test substances, in the same glasshouse conditions as the rice. Therefore, each pot of weeds contained a group of LEFCH and a separate group of ECHCG. All pots of rice and all pots of weeds were flooded to 2-3 cm water depth the day prior to application of the test substances. Growth stages at time of application were as follows: Rice: from 2 leaves on the main stem up to tillering; ECHCG: from 2 leaves on the main stem up to tillering; LEFCH: 2-3 leaves.
Most of the test substances were used as formulated products. […] Imazosulfuron (a comparator co-herbicide) was applied as a GR0.25 formulation (GR=granule).
The test plants were then grown on in the same glasshouse conditions, and watered twice daily keeping the flood water at a depth of 2-3 cm. […]

IR-64 rice [5] = assay: Biological Example 2 (Test 109): damage to flooded transplanted rice; conditions: for IR-64 rice % herbicidal damage: EC050, into flood water, 14 days after application
Experimental: as §1, with “IR-64,” for “Koshihikari,”, “(30/20°” for “30/20°”, “2-3” for “4”, “leaves.” for “leaves. The test solutions were prepared by mixing the appropriate aliquots of the test substance (here, compound A-13 as EC050 Formulation Example 1) in de-ionised water to give the desired treatment concentration.”
as §5, §2, §3, §4

SMILES: CC1(C)OC(C)(C)C(O)=C(c2cc(-c3ccc(Cl)cc3F)ccc2C2CC2)C1=O [compound A-13, 4-(4′-Chloro-4-cyclopropyl-2′-fluorobiphenyl-3-yl)-2,2,6,6-tetramethylpyran-3,5-dione]
- ECHCG control ([1]; 60 g/ha applied alone (EC050)): 35%
- ECHCG control ([1]; 90 g/ha applied alone (EC050)): 55%
- ECHCG control ([1]; 120 g/ha applied alone (EC050)): 55%
- Transplanted ECHCG % herbicidal damage ([2]; 30 g/ha): 0%
- Transplanted ECHCG % herbicidal damage ([2]; 60 g/ha): 20%
- Transplanted ECHCG % herbicidal damage ([2]; 125 g/ha): 75%
- Transplanted ECHCG % herbicidal damage ([2]; 500 g/ha): 99%
- Koshihikari rice % herbicidal damage, Mean of 2 repetitions (Koshihikari rice; 125 g/ha): 13%
- Koshihikari rice % herbicidal damage, Repetition A (Koshihikari rice; 125 g/ha): 10%
- Koshihikari rice % herbicidal damage, Repetition B (Koshihikari rice; 125 g/ha): 15%
- rice phytotoxicity (span of the 2 repetitions) (Koshihikari rice; 125 g/ha): 10-15%
- Koshihikari rice % herbicidal damage, Mean of 2 repetitions (Koshihikari rice; 250 g/ha): 20%
- Koshihikari rice % herbicidal damage, Repetition A (Koshihikari rice; 250 g/ha): 20%
- Koshihikari rice % herbicidal damage, Repetition B (Koshihikari rice; 250 g/ha): 20%
- Koshihikari rice % herbicidal damage, Mean of 2 repetitions (Koshihikari rice; 500 g/ha): 25%
- Koshihikari rice % herbicidal damage, Repetition A (Koshihikari rice; 500 g/ha): 20%
- Koshihikari rice % herbicidal damage, Repetition B (Koshihikari rice; 500 g/ha): 30%
- rice phytotoxicity (span of the 2 repetitions) (Koshihikari rice; 500 g/ha): 20-30%
- selectivity margin for use on rice (Koshihikari vs ECHCG) (Koshihikari rice; Biological Example 3, 125 g/ha vs 500 g/ha): reasonable selectivity margin
- ECHCG % herbicidal damage, Mean of 2 repetitions ([3]; 30 g/ha): 58%
- ECHCG % herbicidal damage, Repetition A ([3]; 30 g/ha): 55%
- ECHCG % herbicidal damage, Repetition B ([3]; 30 g/ha): 60%
- ECHCG % herbicidal damage, Mean of 2 repetitions ([3]; 60 g/ha): 63%
- ECHCG % herbicidal damage, Repetition A ([3]; 60 g/ha): 65%
- ECHCG % herbicidal damage, Repetition B ([3]; 60 g/ha): 60%
- ECHCG % herbicidal damage, Mean of 2 repetitions ([3]; 125 g/ha): 88%
- ECHCG % herbicidal damage, Repetition A ([3]; 125 g/ha): 85%
- ECHCG % herbicidal damage, Repetition B ([3]; 125 g/ha): 90%
- ECHCG control (span of the 2 repetitions) ([3]; 125 g/ha): 85-90%
- phytotoxicity (damage) to IR-64 transplanted flooded rice, in words (IR-64 rice [4]): very low phytotoxicity
- IR-64 rice % herbicidal damage (IR-64 rice [5]; 120 g/ha): 5%
- IR-64 rice % herbicidal damage (IR-64 rice [5]; 240 g/ha): 18%
- IR-64 rice % herbicidal damage (IR-64 rice [5]; 360 g/ha): 5%
- selectivity margin in rice (IR-64 rice vs ECHCG) (IR-64 rice [5]; Biological Example 2, 120 g/ha): good selectivity margin
